Experimental data reported in ChEMBL document CHEMBL3390836, “Mannich- and LedererManasse-based analogues of the natural product S-(+)-curcuphenol as cancer proliferation and migration inhibitors” (Medchemcomm, 2012).

Tests used:
MDA-MB-231 [1] = assay: Cytotoxicity against human MDA-MB-231 cells assessed as growth inhibition after 24 hrs by MTT assay; type: cell-based; conditions: MDA-MB-231, 24 h
MDA-MB-231 [2] = assay: Growth inhibition of human MDA-MB-231 cells after 72 hrs by MTT assay; type: functional, cell-based; conditions: MDA-MB-231, 72 h
MCF7 = assay: Growth inhibition of human MCF7 cells after 72 hrs by MTT assay; type: functional, cell-based; conditions: MCF7, 72 h
MDA-MB-231 [3] = assay: Antimigratory activity against human MDA-MB-231 cells after 24 hrs by wound-healing assay; type: functional, cell-based; conditions: MDA-MB-231, 24 h

IC50 (MDA-MB-231 [2]) [µM]	IC50 (MCF7) [µM]	IC50 (MDA-MB-231 [3]) [µM]	SMILES	IC50 (MDA-MB-231 [1]) [µM]
11.3	13.2	3.1	CCOC(CCN1COc2c([C@@H](C)CCC=C(C)C)ccc(C)c2C1)OCC	> 20
14.9	10.3	> 20	CCOC(CCNCc1c(C)ccc([C@@H](C)CCC=C(C)C)c1O)OCC	> 20
